Data as given in PMC6855144, “Examination of the Glycine Betaine-Dependent Methylotrophic Methanogenesis Pathway: Insights Into Anaerobic Quaternary Amine Methylotrophy” (Frontiers in Microbiology, 2019).

Target: T1, MV8460 (MtgB) (Methanolobus vulcani, UniProt A0A7Z8KPC2)
T1 construct: gene FKV42_08460
T1 sequence (A0A7Z8KPC2 1-475): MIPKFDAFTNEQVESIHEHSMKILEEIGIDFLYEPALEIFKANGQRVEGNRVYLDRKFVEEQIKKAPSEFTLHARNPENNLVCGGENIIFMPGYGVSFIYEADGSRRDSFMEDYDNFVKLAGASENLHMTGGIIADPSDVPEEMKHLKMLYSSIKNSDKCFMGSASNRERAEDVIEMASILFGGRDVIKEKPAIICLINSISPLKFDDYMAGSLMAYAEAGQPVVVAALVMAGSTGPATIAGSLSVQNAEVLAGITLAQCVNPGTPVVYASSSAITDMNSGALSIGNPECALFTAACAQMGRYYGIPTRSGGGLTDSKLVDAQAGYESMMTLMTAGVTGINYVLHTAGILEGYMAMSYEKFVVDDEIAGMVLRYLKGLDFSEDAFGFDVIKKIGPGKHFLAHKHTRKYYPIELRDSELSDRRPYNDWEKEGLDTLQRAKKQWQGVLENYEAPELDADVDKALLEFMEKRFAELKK
Assay: UV-vis, methylation of free cob(I)alamin at […] nm
Type: biochemical
Conditions: methyl donor 50 mM; co-substrate cob(I)alamin; 37 °C; anoxic

For C[N+](C)(C)CC(=O)[O-] [GB, glycine betaine], the “UV-vis, methylation of free cob(I)alamin at 540 nm” value was “We detected methylation of free cob(I)alamin by MV8460 using GB as the methyl donor”.
